Reference: publication PMC6663879, “Biochemical and structural investigations clarify the substrate selectivity of the 2-oxoglutarate oxygenase JMJD6” (The Journal of Biological Chemistry, 2019)
Several values for one entry are separate records, joined by “and”; a condition that tells them apart may be missing. Identical values can stand only once. Ends that are not written are not given here.

Assays:
JMJD6^Δ363–403 [1] = target: T1, JMJD6^Δ363–403 (Homo sapiens, UniProt Q6NYC1); test: Standard MS-based hydroxylation assay (MALDI-TOF MS) of substrate peptides; type: biochemical; parameters: two more variants (aa 1–362, JMJD6^Δ363–403, and aa 1–343, JMJD6^Δ344–403); His6 (N); made in house; host or cells: Escherichia coli Rosetta2(DE3); details: for Hydroxylation: 10 μM JMJD6^Δ363–403, 100 μM peptide, 100 μM Fe(II), 400 μM ascorbate, 500 μM 2OG, 50 mM HEPES-KOH pH 8.0, 37 °C, 30 min, MALDI-TOF MS; for Hydroxylation / kcat / Km: mean ± S.D. (n = 3); for JMJD6-catalyzed hydroxylation (+16-Da mass shift), result in words: JMJD6^Δ363–403, standard assay conditions, MALDI-TOF MS / LC-MS/MS; for kcat/Km^app / kcat / Km: standard hydroxylation assay conditions, substrate peptide varied 0–400 μM; for Km: read-out: Km^app
JMJD6^Δ363–403 [2] = target: T1, JMJD6^Δ363–403; test: Standard MS-based demethylation assay (MALDI-TOF, LC-MS/MS); type: biochemical; parameters: two more variants (aa 1–362, JMJD6^Δ363–403, and aa 1–343, JMJD6^Δ344–403); His6 (N); made in house; host or cells: Escherichia coli Rosetta2(DE3); details: JMJD6^Δ363–403, 37 °C, HEPES-KOH pH 8.0, MALDI-TOF MS / LC-MS/MS
Method: Peptides were “trapped” on an in-house packed guard column (75-μm inner diameter × 20 mm, Acclaim PepMap® C18, 3 μm, 100 Å) using solvent A (0.1% (v/v) aqueous formic acid) at a pressure of 140 bar. Peptides were separated on an EASY-Spray Acclaim PepMap® analytical column (75 μm inner diameter × 15 mm, rapid separation liquid chromatography C18, 3 μm, 100 Å) using a linear gradient (length, 100 min; 3–60% solvent B (0.1% formic acid in acetonitrile), flow rate, 300 nl/min). The separated peptides were electro-sprayed directly into the spectrometer operating in a data-dependent mode using a collision-induced dissociation/electron transfer dissociation (CID/ETD)-based method. Full scan MS spectra (scan range 150–2000 m/z, resolution 30,000, AGC target 1 × 10^6, maximum injection time 250 ms) and subsequent CID MS/MS spectra (AGC target 3 × 10^4, maximum injection time 500 ms) of the 10 most intense peaks were acquired in the Orbitrap. CID fragmentation was performed at 35% of the normalized collision energy, and the signal intensity threshold was kept at 500 counts. ETD spectra (AGC cation target 5 × 10^4, AGC anion target 2 × 10^5, and cation maximum injection time 100 ms) were acquired in the ion trap. PEAKS® 8.0 (Bioinformatics Solutions, Inc., Waterloo, Canada) was used to analyze raw data. The raw MS files were searched against the respective protein sequences. […]

JMJD2E (KDM4E) = test: MS-based demethylation assay, positive control for RDM activity; type: biochemical; details: same conditions, MALDI-TOF MS / LC-MS/MS
Method: Reaction samples were thereafter analyzed by MALDI-TOF or LC-MS/MS.
Peptides were “trapped” on an in-house packed guard column (75-μm inner diameter × 20 mm, Acclaim PepMap® C18, 3 μm, 100 Å) using solvent A (0.1% (v/v) aqueous formic acid) at a pressure of 140 bar. Peptides were separated on an EASY-Spray Acclaim PepMap® analytical column (75 μm inner diameter × 15 mm, rapid separation liquid chromatography C18, 3 μm, 100 Å) using a linear gradient (length, 100 min; 3–60% solvent B (0.1% formic acid in acetonitrile), flow rate, 300 nl/min). The separated peptides were electro-sprayed directly into the spectrometer operating in a data-dependent mode using a collision-induced dissociation/electron transfer dissociation (CID/ETD)-based method. Full scan MS spectra (scan range 150–2000 m/z, resolution 30,000, AGC target 1 × 10^6, maximum injection time 250 ms) and subsequent CID MS/MS spectra (AGC target 3 × 10^4, maximum injection time 500 ms) of the 10 most intense peaks were acquired in the Orbitrap. CID fragmentation was performed at 35% of the normalized collision energy, and the signal intensity threshold was kept at 500 counts. ETD spectra (AGC cation target 5 × 10^4, AGC anion target 2 × 10^5, and cation maximum injection time 100 ms) were acquired in the ion trap. PEAKS® 8.0 (Bioinformatics Solutions, Inc., Waterloo, Canada) was used to analyze raw data. […]

[3] = tested on: SAKcaC (stretch-activated BK channel); test: Single-channel current recording of SAKcaC with GsMTx4 back-filled in the pipette; type: cell-based, chick; details: for Po of SAKcaC (amplitude histogram): 50 nM GsMTx4 in pipette, 25 min after onset of back-filling, chick ventricular myocytes, typical patch
[4] = JMJD6^Δ363–403, MALDI-TOF MS, inhibitor concentration not given

Molecule	Hydroxylation (JMJD6^Δ363–403 [1])	kcat/Km^app (JMJD6^Δ363–403 [1])	kcat (JMJD6^Δ363–403 [1])	Km (JMJD6^Δ363–403 [1])	also measured
KSKERKRSRDRE [RBM39_51–62, fragment of RBM39]	37.0 ± 7.6%	–	–	–	–
PRSRSRSRDRRRKE [Acinus S′447–460, fragment of Acinus S′]	25.6 ± 2.8%	–	–	–	–
H4_1–30: histone 4 peptide with unmodified arginine residues	–	–	–	–	JMJD6-catalyzed hydroxylation (+16-Da mass shift), result in words (JMJD6^Δ363–403 [1]): hydroxylation of lysine residues was also observed
ERGRRSRSTSKT [SRSF11_299–310, fragment of SRSF11]	6.40 ± 0.90%	–	–	–	–
SGR(me2s)GKGGKGLGKGGAKRHK-biotin [H4R3(me2s)1–18, histone 4 peptide with symmetrically di-methylated Arg3 and K-biotin]	–	–	–	–	JMJD6-catalyzed demethylation (−14 or −28 Da mass shift), result in words (JMJD6^Δ363–403 [2]): does not have RDM activity; JMJD6-catalyzed hydroxylation (+16-Da mass shift), result in words (JMJD6^Δ363–403 [1]): catalyzes hydroxylation; JMJD2E-catalyzed demethylation (−14 and −28 Da mass shifts), result in words (JMJD2E (KDM4E)): manifested demethylation
RSPKRKLSRSPSPR [SRSF11_358–372, fragment of SRSF11]	44.1 ± 3.9%	229 M⁻¹ s⁻¹	174 ± 19 × 10^−4 s^−1	76 ± 21 µM	–
O=C(O)c1ccnc(C(=O)O)c1 [2,4-PDCA, 2,4-pyridine dicarboxylic acid, reference compound]	–	–	–	–	Hydroxylation of ERα 251–262 peptide by JMJD6 on addition of the inhibitor (JMJD6^Δ363–403 [1]; [4]): Hydroxylation was ablated; Hydroxylation of WT pVHL166–177 by JMJD6 in the presence of the inhibitor (JMJD6^Δ363–403 [1]; [4]): did not manifest hydroxylation
RSKSPRRRRSHSR [SRSF11_286–298, fragment of SRSF11]	90.5 ± 5.0%	195 M⁻¹ s⁻¹	80.0 ± 3.9 × 10^−4 s^−1	41 ± 6.6 µM	–
SRERRKLSRSRSR [LUC7L1_287–298, fragment of LUC7L1]	18.3 ± 3.1%	–	–	–	–
SRRRSRSKSPFR [RBM39_121–132, fragment of RBM39]	82.5 ± 5.6%	303 M⁻¹ s⁻¹	300 ± 23 × 10^−4 s^−1	99 ± 19 µM	–
RKHRSRSRDRRRSKS [CROP341–355, fragment of SR protein CROP/LUC7L3]	92.7 ± 6.9%	217 M⁻¹ s⁻¹	165 ± 12 × 10^−4 s^−1	76 ± 13 µM	–
ERα251–262K252A: ERα 251–262 peptide with alanine substitution K252A (MAGGIRKDRRGG; UniProt P03372 251-262, looked up, fragment K252A)	–	–	–	–	JMJD6-catalyzed hydroxylation (+16-Da mass shift), result in words (JMJD6^Δ363–403 [1]): Hydroxylation was ablated
ENRHRKRSHSRSRSR [U2AF65_21–35, fragment of the RS region of U2AF65]	74.7 ± 4.1%	68 M⁻¹ s⁻¹	40.0 ± 2.2 × 10^−4 s^−1	59 ± 8.6 µM	–
DRKSYKHRSKSRDR [CROP357–370, fragment of SR protein CROP/LUC7L3]	88.7 ± 4.9%	42 M⁻¹ s⁻¹	39.0 ± 3.6 × 10^−4 s^−1	93 ± 20 µM	–
KRHSRSRSRS [Acinus S′95–604, fragment of Acinus S′]	12.5 ± 3.0%	–	–	–	–
SRSRRRSHSKSR [SRSF11_271–282, fragment of SRSF11]	33.6 ± 1.8%	–	–	–	–
pVHL166–177K171A: alanine variant of pVHL166–177 (VRSLVAPENYRR; UniProt P40337 166-177, looked up, fragment K171A)	–	–	–	–	JMJD6-catalyzed hydroxylation (+16-Da mass shift), result in words (JMJD6^Δ363–403 [1]): did not manifest hydroxylation
RKRSRSKERRRS [RBM39_71–82, fragment of RBM39]	87.6 ± 7.0%	322 M⁻¹ s⁻¹	284 ± 11 × 10^−4 s^−1	88 ± 8.7 µM	–
pVHL166–177: lysine-containing pVHL sequence (VRSLVKPENYRR; UniProt P40337 166-177, looked up, fragment)	–	–	–	–	JMJD6-catalyzed hydroxylation (+16-Da mass shift), result in words (JMJD6^Δ363–403 [1]): presence of a +16-Da mass shift
H3_1–25: histone 3 peptide with unmodified arginine residues	–	–	–	–	JMJD6-catalyzed hydroxylation (+16-Da mass shift), result in words (JMJD6^Δ363–403 [1]): hydroxylation of lysine residues was also observed
ERα251–262K257A: ERα 251–262 peptide with alanine substitution K257A (MKGGIRADRRGG; UniProt P03372 251-262, looked up, fragment K257A)	–	–	–	–	JMJD6-catalyzed hydroxylation (+16-Da mass shift), result in words (JMJD6^Δ363–403 [1]): Hydroxylation was ablated
GsMTx4: inhibitor of stretch-activated BK channel (mismatched supplement) (GCLEFWWKCNPNDDKCCRPKLKCSKLFKLCNFSF; ends and bridges not checked; cysteine pairing not given here; UniProt Q7YT39 47-80, looked up)	–	–	–	–	Po of SAKcaC (amplitude histogram) ([3]; 1 mM intracellular Ca2+): 35.5; Po of SAKcaC (amplitude histogram) ([3]; –40 mV, 0.8 µM intracellular Ca2+): 14.2; Effect on stretch-activated BK channel and its single-channel conductance, result in words ([3]; 100 nM GsMTx4 in the pipette, 1 mM intracellular Ca2+, 30 min after onset of back-filling): inhibits stretch-activated BK channel without changing single-channel conductance
SRDHKRSRSRERRRS [CROP311–325, fragment of SR protein CROP/LUC7L3]	89.3 ± 1.9%	269 M⁻¹ s⁻¹	191 ± 6.6 × 10^−4 s^−1	71 ± 7.2 µM	–
SRSRSRDRKRRSRSRDR [U2AF65_30–46, fragment of the RS region of U2AF65]	72.4 ± 6.5%	118 M⁻¹ s⁻¹	92.0 ± 7.0 × 10^−4 s^−1	78 ± 15 µM	–
RSRSGTRSPKKPSR [SRSF11_347–360, fragment of SRSF11]	97.0 ± 2.2%	159 M⁻¹ s⁻¹	146 ± 9.6 × 10^−4 s^−1	92 ± 14 µM	–
SKSRSRSHERKRS [RBM39_38–50, fragment of RBM39]	79.0 ± 8.9%	395 M⁻¹ s⁻¹	281 ± 15 × 10^−4 s^−1	71 ± 9.9 µM	–
RDRRRRSKPLTRGAK [U2AF65_55–70, fragment of U2AF65]	61.0 ± 6.4%	34 M⁻¹ s⁻¹	43.0 ± 5.2 × 10^−4 s^−1	124 ± 34 µM	–
NPKRSRSREHRR [LUC7L2_267–278, reported JMJD6 substrate, fragment of SR protein LUC7L2, reference compound]	98.5 ± 4.8%	208 M⁻¹ s⁻¹	106 × 10^−4 s^−1 and 106 ± 4.0 × 10^−4 s^−1	51 ± 4.6 µM	–
RSKKRKKSKSRS [RBM39_31–42]	99.0 ± 0.70%	455 M⁻¹ s⁻¹	255 ± 15 × 10^−4 s^−1	56 ± 9.6 µM	–
